Test results as given in ChEMBL document CHEMBL3774330, “Design, synthesis of phenstatin/isocombretastatin-oxindole conjugates as antimitotic agents” (Bioorg Med Chem, 2016).

Assays:
HepG2 = experiment: cells; conditions: Homo sapiens, HepG2, 48 h
Description: Cytotoxicity against human HepG2 cells after 48 hrs by MTT assay

[1] = Cytotoxicity against human DU145 cells after 48 hrs by MTT assay; format: functional, cell-based; conditions: DU-145, 48 h
MCF7 = experiment: cells; conditions: Homo sapiens, MCF7, 48 h
Description: Cytotoxicity against human MCF7 cells after 48 hrs by MTT assay

A549 = experiment: cells; conditions: Homo sapiens, A549, 48 h
Description: Cytotoxicity against human A549 cells after 48 hrs by MTT assay

HT-29 [2] = experiment: Cytotoxicity against human HT-29 cells after 48 hrs by MTT assay; format: functional, cell-based; conditions: HT-29, 48 h
HT-29 [3] = experiment: Induction of apoptosis in human HT-29 cells assessed as late apoptotic cells at 10 nM after 48 hrs by Annexin V-FITC/PI staining based flow cytometry (Rvb=4.06%); format: functional
HT-29 [4] = experiment: Induction of apoptosis in human HT-29 cells assessed as early apoptotic cells at 50 nM after 48 hrs by Annexin V-FITC/PI staining based flow cytometry (Rvb=1.30%); format: functional
HT-29 [5] = experiment: Cell cycle arrest in human HT-29 cells assessed as accumulation at G2/M phase at 50 nM after 48 hrs by propidium iodide staining based flow cytometry (reference value: 12.47%); format: functional
HT-29 [6] = experiment: Cell cycle arrest in human HT-29 cells assessed as accumulation at sub G1 phase at 50 nM after 48 hrs by propidium iodide staining based flow cytometry (reference value: 1.00%); format: functional
HT-29 [7] = experiment: Cell cycle arrest in human HT-29 cells assessed as accumulation at S phase at 10 nM after 48 hrs by propidium iodide staining based flow cytometry (reference value: 3.02%); format: functional
HT-29 [8] = experiment: Induction of apoptosis in human HT-29 cells assessed as late apoptotic cells at 50 nM after 48 hrs by Annexin V-FITC/PI staining based flow cytometry (Rvb=4.06%); format: functional
HT-29 [9] = experiment: Induction of apoptosis in human HT-29 cells assessed as reduction in mitochondrial membrane potential at 50 nM after 48 hrs by JC-1 staining based flow cytometry (reference value: 94.3%); format: functional; parameters: scale not given: the % may be the effect or the level left
HT-29 [10] = experiment: Cell cycle arrest in human HT-29 cells assessed as accumulation at G0/G1 phase at 50 nM after 48 hrs by propidium iodide staining based flow cytometry (reference value: 83.01%); format: functional
HT-29 [11] = experiment: Induction of apoptosis in human HT-29 cells assessed as early apoptotic cells at 10 nM after 48 hrs by Annexin V-FITC/PI staining based flow cytometry (Rvb=1.30%); format: functional
HT-29 [12] = experiment: Induction of apoptosis in human HT-29 cells assessed as viable cells at 50 nM after 48 hrs by Annexin V-FITC/PI staining based flow cytometry (Rvb=93.82%); format: functional; conditions: HT-29, 48 h, read-out: Activity
HT-29 [13] = experiment: Cell cycle arrest in human HT-29 cells assessed as accumulation at G0/G1 phase at 10 nM after 48 hrs by propidium iodide staining based flow cytometry (reference value: 83.01%); format: functional
HT-29 [14] = experiment: Induction of apoptosis in human HT-29 cells assessed as necrotic cells at 50 nM after 48 hrs by Annexin V-FITC/PI staining based flow cytometry (Rvb=0.82%); format: functional
HT-29 [15] = experiment: Cell cycle arrest in human HT-29 cells assessed as accumulation at sub G1 phase at 10 nM after 48 hrs by propidium iodide staining based flow cytometry (reference value: 1.00%); format: functional
HT-29 [16] = experiment: Induction of apoptosis in human HT-29 cells assessed as reduction in mitochondrial membrane potential at 10 nM after 48 hrs by JC-1 staining based flow cytometry (reference value: 94.3%); format: functional; parameters: scale not given: the % may be the effect or the level left
HT-29 [17] = experiment: Induction of apoptosis in human HT-29 cells assessed as viable cells at 10 nM after 48 hrs by Annexin V-FITC/PI staining based flow cytometry (Rvb=93.82%); format: functional; conditions: HT-29, 48 h, read-out: Activity
HT-29 [18] = experiment: Cell cycle arrest in human HT-29 cells assessed as accumulation at S phase at 50 nM after 48 hrs by propidium iodide staining based flow cytometry (reference value: 3.02%); format: functional
Tubulin = Tubulin (Sus scrofa, UniProt P02554+P02550); experiment: Inhibition of porcine brain tubulin polymerization after 1 hr by fluorescence assay
HT-29 [19] = experiment: Cell cycle arrest in human HT-29 cells assessed as accumulation at G2/M phase at 10 nM after 48 hrs by propidium iodide staining based flow cytometry (reference value: 12.47%); format: functional
HT-29 [20] = experiment: Induction of apoptosis in human HT-29 cells assessed as necrotic cells at 10 nM after 48 hrs by Annexin V-FITC/PI staining based flow cytometry (Rvb=0.82%); format: functional

SMILES | IC50 (HepG2) [µM] | IC50 [1] [µM] | IC50 (MCF7) [µM] | IC50 (A549) [µM] | IC50 (HT-29 [2]) [µM] | further results
C=C(c1ccc(OC)c(/C=C2/C(=O)Nc3cc(Br)ccc32)c1)c1cc(OC)c(OC)c(OC)c1 | 10.5 | 20.7 | 21 | 12.6 | 8.32 | 
COc1ccc(C(=O)c2cc(OC)c(OC)c(OC)c2)cc1/C=C1/C(=O)Nc2ccccc21 | 3.8 | 26.8 | 10.7 | 6.7 | 2.73 | 
COc1ccc(C(=O)c2cc(OC)c(OC)c(OC)c2)cc1/C=C1/C(=O)Nc2ccc(Cl)cc21 | 2.51 | 29.2 | 14.2 | 9.66 | 3.23 | 
C=C(c1ccc(OC)c(/C=C2/C(=O)Nc3ccc(Br)cc32)c1)c1cc(OC)c(OC)c(OC)c1 | 8.32 | 19.1 | 18.2 | 7.43 | 5.62 | 
C=C(c1ccc(OC)c(/C=C2/C(=O)Nc3ccc(OC)cc32)c1)c1cc(OC)c(OC)c(OC)c1 | 0.897 | 5.04 | 3.16 | 1.48 | 0.107 | 
C=C(c1ccc(OC)c(/C=C2/C(=O)Nc3ccc(F)cc32)c1)c1cc(OC)c(OC)c(OC)c1 | 0.084 | 3.13 | 3.98 | 1.17 | 0.081 | 
COc1ccc(C(=O)c2cc(OC)c(OC)c(OC)c2)cc1/C=C1/C(=O)Nc2ccc(Br)cc21 | 8.13 | 19.1 | 30.8 | 9.77 | 8.61 | 
COc1ccc2c(c1)/C(=C\c1cc(C(=O)c3cc(OC)c(OC)c(OC)c3)ccc1OC)C(=O)N2 | 0.095 | 7.94 | 0.269 | 0.079 | 0.045 | Activity (HT-29 [3]): 8.34%; Activity (HT-29 [4]): 4.97%; Activity (HT-29 [5]): 49.8%; Activity (HT-29 [6]): 0.62%; Activity (HT-29 [7]): 4.87%; Activity (HT-29 [8]): 18.7%; Activity (HT-29 [9]): 83.1%; Activity (HT-29 [10]): 48.01%; Activity (HT-29 [11]): 2.16%; viability at 0.05 µM (HT-29 [12]): 72.8%; Activity (HT-29 [13]): 73.61%; Activity (HT-29 [14]): 3.52%; Activity (HT-29 [15]): 0.43%; Activity (HT-29 [16]): 87.7%; viability at 0.01 µM (HT-29 [17]): 88.7%; Activity (HT-29 [18]): 0.91%; IC50 (Tubulin): 1.23 µM; Activity (HT-29 [19]): 21.69%; Activity (HT-29 [20]): 0.83%
COc1ccc(C(=O)c2cc(OC)c(OC)c(OC)c2)cc1/C=C1/C(=O)Nc2ccc(F)cc21 | 0.186 | 9.71 | 0.386 | 0.093 | 0.049 | Activity (HT-29 [3]): 9.67%; Activity (HT-29 [4]): 5.42%; Activity (HT-29 [5]): 56.82%; Activity (HT-29 [6]): 0.18%; Activity (HT-29 [7]): 2.47%; Activity (HT-29 [8]): 24.46%; Activity (HT-29 [9]): 81%; Activity (HT-29 [10]): 41.27%; Activity (HT-29 [11]): 2.88%; viability at 0.05 µM (HT-29 [12]): 67.2%; Activity (HT-29 [13]): 50.06%; Activity (HT-29 [14]): 2.92%; Activity (HT-29 [15]): 0.35%; Activity (HT-29 [16]): 83.8%; viability at 0.01 µM (HT-29 [17]): 86.5%; Activity (HT-29 [18]): 1.36%; IC50 (Tubulin): 1.01 µM; Activity (HT-29 [19]): 47.12%; Activity (HT-29 [20]): 0.98%
C=C(c1ccc(OC)c(/C=C2/C(=O)Nc3cc(Cl)ccc32)c1)c1cc(OC)c(OC)c(OC)c1 | 3.23 | 11.4 | 11.7 | 7.41 | 2.27 | 
COc1ccc(C(=O)c2cc(OC)c(OC)c(OC)c2)cc1/C=C1/C(=O)Nc2cc(Br)ccc21 | 4.02 | 12 | 14.7 | 4.57 | 3.71 | 
C=C(c1ccc(OC)c(/C=C2/C(=O)Nc3ccccc32)c1)c1cc(OC)c(OC)c(OC)c1 | 7.67 | 25.6 | 20.3 | 11.4 | 6.46 | 
C=C(c1ccc(OC)c(/C=C2/C(=O)Nc3ccc(Cl)cc32)c1)c1cc(OC)c(OC)c(OC)c1 | 5.62 | 38.9 | 15.2 | 10.9 | 4.26 | 
COc1ccc(C(=O)c2cc(OC)c(OC)c(OC)c2)cc1/C=C1/C(=O)Nc2cc(Cl)ccc21 | 15.8 | 32.6 | 15.9 | 11.9 | 13.4 | 
COc1ccc(C(=O)c2cc(OC)c(OC)c(OC)c2)cc1/C=C1/C(=O)Nc2ccc([N+](=O)[O-])cc21 | 6.92 | 35.6 | 12.3 | 8.91 | 5.13 | 
C=C(c1ccc(OC)c(/C=C2/C(=O)Nc3ccc([N+](=O)[O-])cc32)c1)c1cc(OC)c(OC)c(OC)c1 | 3.71 | 19.5 | 13.2 | 5.75 | 1.34 | 
COc1ccc(/C=C\c2cc(OC)c(OC)c(OC)c2)cc1O [COMBRETASTATIN A4] | 0.023 | 0.007 | 0.046 | 0.051 | 0.049 | Activity (HT-29 [3]): 20.21%; Activity (HT-29 [7]): 2.62%; Activity (HT-29 [11]): 3.46%; Activity (HT-29 [13]): 51.46%; Activity (HT-29 [15]): 0.16%; Activity (HT-29 [16]): 84.2%; viability at 0.01 µM (HT-29 [17]): 73.4%; Activity (HT-29 [19]): 45.76%; Activity (HT-29 [20]): 2.93%
